Earlier results in patent publication US20030018074A1, “Antiviral composition and treatment method” (priority 2001, published 2003).
Where two headings read alike, the source gives them in different places.

Tests used:
HSV-2 = conditions: for EC50: HSV-2, Vero cells, surfactant suspension, read-out: effective concentration required to inhibit plaque formation by 50% (EC50)
HSV-2 virus = conditions: incubation of HSV-2 with the suspension for 2 hours
[1] = tested on: early viral protein synthesis
[2] = tested on: HSV-1 dorsal cutaneous infection; conditions: 5% in a branch chain ester base; guinea pigs

Structure (SMILES): CCCCCCCC/C=C/CCCCCCCCCCCCO [brassidyl alcohol, trans-13-docosen-1-ol]
- cellular toxicity (in words) (Vero cells; compared with erucyl alcohol): significantly less than that of erucyl alcohol

Structure (SMILES): CCCCCCCC/C=C\CCCCCCCCCCCC(N)=O [erucamide, cis-13-docosenoamide]
- percent inhibition of plaque formation (HSV-2; 0.03 mM): 34%
- percent inhibition of plaque formation (HSV-2; 0.59 mM): 42%
- percent inhibition of plaque formation (HSV-2; 0.89 mM): 44%
- percent inhibition of plaque formation (HSV-2; 1.2 mM): 58%
- percent inhibition of plaque formation (HSV-2; 1.5 mM): 68%

Structure (SMILES): CCCCCCCC/C=C\CCCCCCCCCCCCO [erucyl alcohol, cis-13-docosen-1-ol]
- EC50 (HSV-2): 0.15 mM
- inhibition of HSV-2 plaque production (HSV-2; concentrations tolerable to the cells (≦1 mM)): ≤ 93%
- EC50 lower than the concentration required for n-docosanol (HSV-2; ratio of EC50 n-docosanol to EC50 erucyl alcohol): 60 fold
- cellular toxicity (in words) (Vero cells; 1 mM): no cellular toxicity was observed
- toxicity to Vero cells (in words) (Vero cells; added to cultures at 2-15 mM): toxic to Vero cells
- direct virucidal effect (in words) (HSV-2 virus): did not have a direct virucidal effect

Structure (SMILES): CCCCCCCCCCCCCCCCCCCCCCO [n-docosanol]
- EC50 (HSV-2): 9 mM
- concentrations where effective (HSV-2; Vero cultures): 2 to 15 mM
- inhibition of early viral protein synthesis [1]: more than 80%

Structure (SMILES): CCCCCCCCCCCCCCCCCCCCCCCCCCCCCCO [triacontanol, 1-triacontanol]
- efficacy for the treatment of HSV-1 dorsal cutaneous infection (in words) [2]: a certain amount of efficacy

Structure (SMILES): CCCCC/C=C\C/C=C\C/C=C\CCCCCO [γ-linolenyl alcohol]
- inactivation of viruses, rank among C14 to C20 unsaturated alcohols (in words) (viruses): most effective
